Assay results: publication PMC8958505, “Discovery of Potential Neuroprotective Agents against Paclitaxel-Induced Peripheral Neuropathy” (Journal of Medicinal Chemistry, 2022)
Where a name gives a salt, the structure may show the parent alone.

How the values were obtained:
Bradykinin B1 = Bradykinin B1 (Homo sapiens, UniProt P46663); experiment: LeadProfilingScreen: Bradykinin B1; assay type: binding
Potassium Channel [KATP] = Potassium Channel [KATP] (Cricetus cricetus, UniProt Q09427); experiment: LeadProfilingScreen: Potassium Channel [KATP]; assay type: binding, hamster; settings: read-out: Inhibition (%), Potassium Channel [KATP]
Text: (§1) LeadProfilingScreen (Total # of Assays: 67)
(§2) To evaluate, in LeadProfilingScreen, the activity of test compound CN168 (Panlabs # 1251879). […]
(§3) Summary of Significant Results
(§4) Biochemical assay results are presented as the percent inhibition of specific binding or activity throughout the report.
(§5) All other results are expressed in terms of that assay's quantitation method.
(§6) • For primary assays, only the lowest concentration with a significant response judged by the assays' criteria, is […]
(§7) • Where applicable, either the secondary assay results with the lowest dose/concentration meeting the significance […]
(§8) • Unless otherwise requested, primary screening in duplicate with quantitative data (e.g., IC50 ± SEM, Ki ± SEM and nH) are shown where applicable for individual requested assays. In screening packages, primary screening in duplicate with semi-quantitative data (e.g., estimated IC50, Ki and nH) are shown where applicable (concentration range of 4 log units); available secondary functional assays are carried out ([…]) and MEC or MIC determined only if active in primary assays >50% at 1 log unit below initial test concentration. […]

CYP 3A4 = target: T1, CYP 3A4 (Homo sapiens, UniProt P08684); experiment: Cytochrome P450 testing, CYP 3A4; assay type: in vitro ADME; settings: testosterone 6-hydroxylation; read-out: Concentration of inhibition (IC50), CYP 3A4
T1 construct: host or cells: baculovirus-infected insect cells (supersomes)
Text: Cytochrome P450 testing of CN016
The effects of CN016 on the activity of six specific human liver cytochrome P450 isozymes (CYP 1A2, 2C9, 2C19, 2D6, 2E1, 3A4) expressed in baculovirus-infected insect cell supersomes were studied. The reactions used to measure the activity of these enzymes were phenacetin O-deethylation (1A2), diclofenac 4-hydroxylation (2C9), mephenytoin 4-hydroxylation (2C19), dextromethorphan O-demethylation (2D6), chlorzoxazone 6-hydroxylation (2E1) and testosterone 6-hydroxylation (3A4).
Furafylline, sulfaphenazole, tranylcypromine, quinidine, diethyldithiocarbamate and azamulin were used as reference inhibitors of these enzymes. Incubation mixtures containing no CN016 or reference inhibitors were used as controls. The tested result […]
Table S4. Result of Cytochrome P450 testing of CN016

[1] = system: macrophages and microglia in DRG tissues; experiment: Immunofluorescence of macrophages and microglia in DRG tissues; assay type: in vivo, mouse; settings: day 7
Description: DRG tissues were isolated on day 7 after first paclitaxel injection. The tissues were fixed in 4% paraformaldehyde at 4 °C overnight and subsequently placed in 30% sucrose for sample dehydration. During the frozen section procedure, the tissues were embedded in OCT (EMS; #14120) and sectioned into 20 μm thick slices. The DRG tissue sections were permeabilized with 0.1% Triton X-100 in PBS for 1 h and then blocked with CAS-Block solution (#008120; Thermo Fisher, USA) at room temperature for another 1 h. DRG tissue sections were stained with primary antibody against CD68 (1:100 dilution; Novus), NOS2 (1:100 dilution; Santa Cruz), Arginase-1 (1:100 dilution; Santa Cruz), and Iba-1 (1:100 dilution; Santa Cruz) at 4 °C overnight. Afterward, the samples were washed with PBS and stained with secondary antibodies (Alexa-488, 594, 1:200 dilution; Invitrogen) and Hoechst 33342 (4 μg/mL; Invitrogen) at room temperature for 1 h. A 60× objective by an Olympus FV3000 confocal microscope was used to acquire immunofluorescence images.

[2] = system: Calcium Channel L-Type, Dihydropyridine; experiment: LeadProfilingScreen: Calcium Channel L-Type, Dihydropyridine; assay type: binding, rat; settings: 10 μM
Glucocorticoid = Glucocorticoid (Homo sapiens, UniProt P04150); experiment: LeadProfilingScreen: Glucocorticoid; assay type: binding
Chain of Glucocorticoid (P04150 whole entry): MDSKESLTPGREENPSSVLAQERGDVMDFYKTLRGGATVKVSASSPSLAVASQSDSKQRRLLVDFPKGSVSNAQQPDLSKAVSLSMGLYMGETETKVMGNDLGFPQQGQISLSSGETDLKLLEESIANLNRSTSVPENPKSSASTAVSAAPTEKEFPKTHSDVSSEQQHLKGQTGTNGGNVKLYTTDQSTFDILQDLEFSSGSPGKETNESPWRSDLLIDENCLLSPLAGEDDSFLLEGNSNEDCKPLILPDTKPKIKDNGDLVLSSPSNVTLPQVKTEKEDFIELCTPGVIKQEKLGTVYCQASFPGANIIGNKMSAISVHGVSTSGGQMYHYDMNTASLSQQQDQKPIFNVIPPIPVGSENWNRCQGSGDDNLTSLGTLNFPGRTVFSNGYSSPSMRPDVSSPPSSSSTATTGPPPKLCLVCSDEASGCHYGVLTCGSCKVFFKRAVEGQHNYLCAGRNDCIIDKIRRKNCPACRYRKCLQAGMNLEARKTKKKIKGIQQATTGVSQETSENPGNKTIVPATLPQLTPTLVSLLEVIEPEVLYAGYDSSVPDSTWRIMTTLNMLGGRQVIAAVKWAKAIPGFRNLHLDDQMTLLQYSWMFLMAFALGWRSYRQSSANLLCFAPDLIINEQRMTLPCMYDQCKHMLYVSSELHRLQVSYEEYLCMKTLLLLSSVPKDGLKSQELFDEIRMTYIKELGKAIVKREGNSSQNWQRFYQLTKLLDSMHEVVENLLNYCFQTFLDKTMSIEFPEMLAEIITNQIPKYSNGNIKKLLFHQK

Imidazoline I2, Central = experiment: LeadProfilingScreen: Imidazoline I2, Central; assay type: binding, rat; settings: 10 μM
Endothelin ETB = Endothelin ETB (Homo sapiens, UniProt P24530); experiment: LeadProfilingScreen: Endothelin ETB; assay type: binding
Chain of Endothelin ETB (P24530 27-442): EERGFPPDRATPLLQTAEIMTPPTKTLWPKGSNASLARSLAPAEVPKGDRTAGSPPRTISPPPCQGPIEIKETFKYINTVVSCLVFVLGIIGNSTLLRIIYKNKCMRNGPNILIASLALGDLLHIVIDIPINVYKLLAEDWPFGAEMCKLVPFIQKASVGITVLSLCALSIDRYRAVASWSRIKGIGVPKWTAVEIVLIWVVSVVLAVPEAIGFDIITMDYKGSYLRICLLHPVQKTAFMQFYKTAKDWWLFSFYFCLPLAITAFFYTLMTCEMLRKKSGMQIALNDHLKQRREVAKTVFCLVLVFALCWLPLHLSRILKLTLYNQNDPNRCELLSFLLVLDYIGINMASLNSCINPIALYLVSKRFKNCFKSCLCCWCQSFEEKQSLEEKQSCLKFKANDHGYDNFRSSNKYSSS

[3] = target: Serotonin (5-Hydroxytryptamine) 5-HT1A (Homo sapiens, UniProt P08908); experiment: LeadProfilingScreen: Serotonin 5-HT1A; assay type: binding
Chain of Serotonin (5-Hydroxytryptamine) 5-HT1A (P08908 whole entry): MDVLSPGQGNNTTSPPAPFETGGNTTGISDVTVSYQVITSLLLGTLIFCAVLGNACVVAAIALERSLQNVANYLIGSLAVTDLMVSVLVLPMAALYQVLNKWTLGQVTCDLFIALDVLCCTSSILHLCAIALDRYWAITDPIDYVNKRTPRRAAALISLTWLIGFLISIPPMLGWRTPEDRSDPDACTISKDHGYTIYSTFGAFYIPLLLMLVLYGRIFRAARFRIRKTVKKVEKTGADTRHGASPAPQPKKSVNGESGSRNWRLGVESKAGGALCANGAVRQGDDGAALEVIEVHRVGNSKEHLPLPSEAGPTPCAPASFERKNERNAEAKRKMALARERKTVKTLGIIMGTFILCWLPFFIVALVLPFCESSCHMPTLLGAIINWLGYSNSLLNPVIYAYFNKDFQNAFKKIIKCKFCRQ

[4] = target: Leukotriene, Cysteinyl CysLT1 (Homo sapiens, UniProt Q9Y271); experiment: LeadProfilingScreen: Leukotriene, Cysteinyl CysLT1; assay type: binding
GABAA, Muscimol, Central = experiment: LeadProfilingScreen: GABAA, Muscimol, Central; assay type: binding, rat; settings: 10 μM
Muscarinic M1 = Muscarinic M1 (Homo sapiens, UniProt P11229); experiment: LeadProfilingScreen: Muscarinic M1; assay type: binding
Chain of Muscarinic M1 (P11229 whole entry): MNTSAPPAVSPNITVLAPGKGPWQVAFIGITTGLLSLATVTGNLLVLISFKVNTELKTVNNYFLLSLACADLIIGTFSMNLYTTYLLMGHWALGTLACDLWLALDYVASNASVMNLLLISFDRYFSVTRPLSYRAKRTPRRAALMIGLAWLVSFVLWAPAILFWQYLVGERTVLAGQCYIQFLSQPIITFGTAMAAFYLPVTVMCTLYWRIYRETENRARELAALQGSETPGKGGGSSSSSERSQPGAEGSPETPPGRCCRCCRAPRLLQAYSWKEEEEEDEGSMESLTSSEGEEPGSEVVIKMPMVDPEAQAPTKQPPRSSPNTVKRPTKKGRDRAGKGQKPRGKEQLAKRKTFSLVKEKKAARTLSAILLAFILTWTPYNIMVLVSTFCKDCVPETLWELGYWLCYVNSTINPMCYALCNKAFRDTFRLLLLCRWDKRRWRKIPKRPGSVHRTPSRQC

GABAB1A = GABAB1A (Homo sapiens, UniProt Q9UBS5); experiment: LeadProfilingScreen: GABAB1A; assay type: binding
[5] = target: Nicotinic Acetylcholine α3β4 (Homo sapiens, UniProt P30926+P32297); experiment: LeadProfilingScreen: Nicotinic Acetylcholine α3β4; assay type: binding
Chain of Nicotinic Acetylcholine α3β4 (P32297 32-505): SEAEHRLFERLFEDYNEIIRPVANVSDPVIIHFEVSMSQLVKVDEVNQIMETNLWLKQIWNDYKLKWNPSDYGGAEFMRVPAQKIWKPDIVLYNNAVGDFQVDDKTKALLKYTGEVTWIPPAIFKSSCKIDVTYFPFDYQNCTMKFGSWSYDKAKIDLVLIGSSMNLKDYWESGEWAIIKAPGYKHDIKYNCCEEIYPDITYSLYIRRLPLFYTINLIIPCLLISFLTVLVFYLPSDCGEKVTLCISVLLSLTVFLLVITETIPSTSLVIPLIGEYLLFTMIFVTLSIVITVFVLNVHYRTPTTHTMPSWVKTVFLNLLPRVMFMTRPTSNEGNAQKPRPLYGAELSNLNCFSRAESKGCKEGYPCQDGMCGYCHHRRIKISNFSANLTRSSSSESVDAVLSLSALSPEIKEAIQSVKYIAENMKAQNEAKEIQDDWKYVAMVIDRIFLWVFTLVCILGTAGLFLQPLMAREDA
Chain of Nicotinic Acetylcholine α3β4 (P30926 26-498 limits assumed): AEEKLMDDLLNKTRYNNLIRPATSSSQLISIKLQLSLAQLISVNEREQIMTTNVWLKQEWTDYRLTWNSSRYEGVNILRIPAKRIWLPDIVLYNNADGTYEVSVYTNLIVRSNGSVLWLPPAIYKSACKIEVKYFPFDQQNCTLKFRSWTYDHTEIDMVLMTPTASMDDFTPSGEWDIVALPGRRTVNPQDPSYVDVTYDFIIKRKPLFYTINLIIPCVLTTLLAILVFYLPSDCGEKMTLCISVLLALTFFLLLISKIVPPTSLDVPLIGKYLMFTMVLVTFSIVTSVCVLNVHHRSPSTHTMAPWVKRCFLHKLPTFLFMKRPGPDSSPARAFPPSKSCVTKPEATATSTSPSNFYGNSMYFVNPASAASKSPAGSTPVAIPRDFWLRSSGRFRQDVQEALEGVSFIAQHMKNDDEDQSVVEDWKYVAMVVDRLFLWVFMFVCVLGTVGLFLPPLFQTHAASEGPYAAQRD

Adrenergic β1 = Adrenergic β1 (Homo sapiens, UniProt P08588); experiment: LeadProfilingScreen: Adrenergic β1; assay type: binding; settings: read-out: Inhibition (%), Adrenergic β1
Text: as §1, §2, §3, §4, §5, §6, §7, §8

hERG = hERG (Homo sapiens, UniProt Q12809); experiment: LeadProfilingScreen: Potassium Channel hERG; assay type: binding
Chain of hERG (Q12809 whole entry): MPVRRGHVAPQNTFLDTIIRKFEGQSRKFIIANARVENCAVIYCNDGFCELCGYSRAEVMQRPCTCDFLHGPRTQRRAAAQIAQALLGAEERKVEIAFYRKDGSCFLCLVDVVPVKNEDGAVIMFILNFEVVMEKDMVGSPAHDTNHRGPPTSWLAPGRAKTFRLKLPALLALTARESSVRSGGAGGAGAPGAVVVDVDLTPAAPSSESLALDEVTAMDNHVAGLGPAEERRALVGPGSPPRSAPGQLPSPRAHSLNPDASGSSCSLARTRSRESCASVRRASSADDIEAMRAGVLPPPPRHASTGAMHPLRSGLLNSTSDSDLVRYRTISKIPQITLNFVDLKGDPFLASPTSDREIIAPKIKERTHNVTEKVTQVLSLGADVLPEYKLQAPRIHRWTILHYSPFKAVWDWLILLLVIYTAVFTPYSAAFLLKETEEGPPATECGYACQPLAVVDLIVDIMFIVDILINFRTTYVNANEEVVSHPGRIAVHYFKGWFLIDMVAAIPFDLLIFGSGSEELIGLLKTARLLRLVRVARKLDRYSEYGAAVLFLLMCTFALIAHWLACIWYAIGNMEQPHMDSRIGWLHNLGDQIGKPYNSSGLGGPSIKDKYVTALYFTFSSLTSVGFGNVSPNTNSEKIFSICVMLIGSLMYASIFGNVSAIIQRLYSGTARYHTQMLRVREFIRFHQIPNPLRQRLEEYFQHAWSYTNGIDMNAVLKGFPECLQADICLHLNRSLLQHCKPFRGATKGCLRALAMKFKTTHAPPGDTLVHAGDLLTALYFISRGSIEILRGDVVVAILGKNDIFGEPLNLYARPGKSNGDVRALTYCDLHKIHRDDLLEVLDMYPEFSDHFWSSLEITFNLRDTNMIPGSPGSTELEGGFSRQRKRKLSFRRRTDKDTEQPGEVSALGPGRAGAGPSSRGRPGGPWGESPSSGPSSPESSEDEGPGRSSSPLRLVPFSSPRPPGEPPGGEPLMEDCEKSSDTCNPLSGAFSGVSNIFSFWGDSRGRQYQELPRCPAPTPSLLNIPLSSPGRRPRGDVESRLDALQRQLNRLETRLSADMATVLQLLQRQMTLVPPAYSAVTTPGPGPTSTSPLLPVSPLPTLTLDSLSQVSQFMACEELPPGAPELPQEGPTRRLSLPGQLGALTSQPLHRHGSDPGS

Endothelin ETA = Endothelin ETA (Homo sapiens, UniProt P25101); experiment: LeadProfilingScreen: Endothelin ETA; assay type: binding
[6] = system: Calcium Channel L-Type, Benzothiazepine; experiment: LeadProfilingScreen: Calcium Channel L-Type, Benzothiazepine; assay type: binding, rat; settings: 10 μM
Histamine H3 = Histamine H3 (Homo sapiens, UniProt Q9Y5N1); experiment: LeadProfilingScreen: Histamine H3; assay type: binding
Adrenergic β2 = Adrenergic β2 (Homo sapiens, UniProt P07550); experiment: LeadProfilingScreen: Adrenergic β2; assay type: binding; settings: read-out: Inhibition (%), Adrenergic β2
Chain of Adrenergic β2 (P07550 whole entry): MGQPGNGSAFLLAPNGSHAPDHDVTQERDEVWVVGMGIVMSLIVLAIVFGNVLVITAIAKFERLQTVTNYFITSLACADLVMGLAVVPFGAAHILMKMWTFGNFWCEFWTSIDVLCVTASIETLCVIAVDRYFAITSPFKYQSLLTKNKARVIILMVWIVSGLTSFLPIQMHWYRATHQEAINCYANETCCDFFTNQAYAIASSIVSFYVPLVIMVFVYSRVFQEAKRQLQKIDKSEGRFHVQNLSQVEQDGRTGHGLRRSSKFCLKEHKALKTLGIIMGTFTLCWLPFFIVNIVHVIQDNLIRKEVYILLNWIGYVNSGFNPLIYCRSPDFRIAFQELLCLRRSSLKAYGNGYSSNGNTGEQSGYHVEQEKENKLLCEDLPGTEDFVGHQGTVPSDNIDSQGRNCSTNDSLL
Text: as §1, §2, §3, §4, §5, §6, §7, §8

Chain of Bradykinin B1 (P46663 whole entry): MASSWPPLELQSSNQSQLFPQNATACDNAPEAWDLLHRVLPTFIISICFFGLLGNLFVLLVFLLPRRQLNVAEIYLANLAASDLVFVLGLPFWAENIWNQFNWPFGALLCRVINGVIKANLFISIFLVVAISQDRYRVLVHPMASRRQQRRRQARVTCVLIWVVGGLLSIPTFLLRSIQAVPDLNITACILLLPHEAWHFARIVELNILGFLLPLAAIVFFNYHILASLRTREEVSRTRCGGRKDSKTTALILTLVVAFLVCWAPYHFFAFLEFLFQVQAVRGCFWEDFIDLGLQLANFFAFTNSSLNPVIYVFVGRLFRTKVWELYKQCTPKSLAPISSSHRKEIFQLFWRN

## O=P(O)(O)CCN1CCC(Nc2cc(N3CCOCC3)nc(NCc3cn(CCCO)nn3)n2)CC1 [CN016, {2-[4-(2-{[1-(3-Hydroxy-propyl)-1H-[1,2,3]triazol-4-ylmethyl]-amino}-6-morpholin-4-yl-pyrimidin-4-ylamino)-piperidin-1-yl]-ethyl}-phosphonic Acid Hydrobromide Salt]
Bradykinin B1
  inhibition at 10 µM: -10%
Potassium Channel [KATP]
  inhibition at 10 µM: -1%
CYP 3A4
  IC50: > 100 µM
[1]; CN016 10 or 20 mg/kg before paclitaxel
  infiltration of M1 and M2 macrophages in DRG tissues: significantly diminished
[1]; CN016 low dosage
  paclitaxel-induced M1 and M2 macrophages recruitment: failed to inhibit
[1]
  paclitaxel-induced activation of M1 microglia in DRG neurons: dramatically reduce
[2]
  Inhibition (%), Calcium Channel L-Type, Dihydropyridine: 14%
Glucocorticoid
  inhibition at 10 µM: 14%
Imidazoline I2, Central
  Inhibition (%), Imidazoline I2, Central: -5%
Endothelin ETB
  inhibition at 10 µM: -1%
[3]
  inhibition at 10 µM: 2%
[4]
  inhibition at 10 µM: -8%
GABAA, Muscimol, Central
  Inhibition (%), GABAA, Muscimol, Central: 5%
Muscarinic M1
  inhibition at 10 µM: 5%
GABAB1A
  inhibition at 10 µM: 14%
[5]
  inhibition at 10 µM: 7%
Adrenergic β1
  inhibition at 10 µM: 4%
hERG
  inhibition at 10 µM: -3%
Endothelin ETA
  inhibition at 10 µM: 15%
[6]
  Inhibition (%), Calcium Channel L-Type, Benzothiazepine: -13%
Histamine H3
  inhibition at 10 µM: 2%
Adrenergic β2
  inhibition at 10 µM: -4%
